pIC50: −log10 of the molar value.
molecular target: T1, wild-type human ALK cytoplasmic domain (amino acids 1058-1620) (Homo sapiens, UniProt Q9UM73); assay: ALK Inhibition in Enzyme Assay (Lance TR-FRET); format: biochemical; conditions: not given
T1 construct: The cytoplasmic domain (amino acids 1058-1620) of wild-type human ALK; GST (N); made in house; host or cells: SF9 insect cells
Summary of the method: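 Purified enzyme phosphorylated a biotinylated peptide substrate for 90 minutes at room temperature. Reactions were stopped with 20 mM EDTA in 50 mM Tris (pH 7.5), 100 mM NaCl, 0.05% BSA, 0.1% Tween-20. Phosphopeptide was detected by TR-FRET with SA-APC and Eu-W1024 anti-phosphotyrosine antibody PT66, excitation 320 nm.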

T1 sequence (Q9UM73 1058-1620): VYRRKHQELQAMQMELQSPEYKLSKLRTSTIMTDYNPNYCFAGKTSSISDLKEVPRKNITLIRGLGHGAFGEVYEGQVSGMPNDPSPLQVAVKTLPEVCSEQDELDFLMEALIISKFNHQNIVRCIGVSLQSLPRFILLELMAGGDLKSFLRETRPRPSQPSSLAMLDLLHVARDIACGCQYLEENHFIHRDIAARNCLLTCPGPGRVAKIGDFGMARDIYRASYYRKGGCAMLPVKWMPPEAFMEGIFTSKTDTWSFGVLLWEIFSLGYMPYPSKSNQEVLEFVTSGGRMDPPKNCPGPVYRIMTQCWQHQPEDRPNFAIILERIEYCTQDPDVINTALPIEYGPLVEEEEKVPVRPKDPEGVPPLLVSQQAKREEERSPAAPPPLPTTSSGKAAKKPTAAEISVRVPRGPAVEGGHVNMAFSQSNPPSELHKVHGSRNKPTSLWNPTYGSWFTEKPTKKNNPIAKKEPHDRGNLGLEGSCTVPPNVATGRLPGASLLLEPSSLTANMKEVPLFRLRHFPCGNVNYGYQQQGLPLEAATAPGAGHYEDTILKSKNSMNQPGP

Row | pIC50 | SMILES
1 | 5.00 to 5.30 | COc1cc(Nc2nccc(N3CCC[C@H](C(=O)NCCCc4ccccc4)C3)n2)cc(OC)c1OC [Example 126, (S)-N-(3-phenylpropyl)-1-(2-((3,4,5-trimethoxyphenyl)amino)-4-pyrimidinyl)-3-piperidinecarboxamide]

same assay, conditions: 2 nM enzyme, ATP at 40 μM (Km apparent), 90 minutes, mean of three replicates; read-out: ALK IC50

Row | pIC50 | SMILES
2 | 5.30 to 6.00 | Cc1ccc(CNC(=O)[C@H]2CCCN(c3ccnc(Nc4cnc5ccccc5c4)n3)C2)cc1 [Example 130, (3S)-N-(4-methylbenzyl)-1-(2-(3-quinolinylamino)-4-pyrimidinyl)-3-piperidinecarboxamide]
3 | 5.30 to 6.00 | Cc1ccc(CNC(=O)[C@H]2CCCN(c3ccnc(Nc4ccc5[nH]ccc5c4)n3)C2)cc1 [Example 131, (3S)-1-(2-(1H-indol-5-ylamino)-4-pyrimidinyl)-N-(4-methylbenzyl)-3-piperidinecarboxamide]
4 | 5.30 to 6.00 | COc1ccccc1Nc1nccc(N2CCC[C@H](C(=O)NCc3ccc(C)cc3)C2)n1 [Example 133, (3S)-1-(2-((2-methoxyphenyl)amino)-4-pyrimidinyl)-N-(4-methylbenzyl)-3-piperidinecarboxamide]
5 | 5.30 to 6.00 | Cc1ccc(CNC(=O)[C@H]2CCCN(c3ccnc(Nc4cccc(C(F)(F)F)c4)n3)C2)cc1 [Example 137, (3S)-N-(4-methylbenzyl)-1-(2-((3-(trifluoromethyl)phenyl)amino)-4-pyrimidinyl)-3-piperidinecarboxamide]
6 | 5.30 to 6.00 | Cc1ccc(CNC(=O)[C@H]2CCCN(c3ccnc(Nc4ccc(N5CCOCC5)cc4)n3)C2)cc1 [Example 139, (3S)-N-(4-methylbenzyl)-1-(2-((4-(4-morpholinyl)phenyl)ami-no)-4-pyrimidinyl)-3-piperidinecarboxamide]
7 | 5.00 to 5.30 | Cc1ccc(CNC(=O)[C@H]2CCCN(c3ccnc(Nc4ccc(=O)n(C)c4)n3)C2)cc1 [Example 147, (3S)-N-(4-methylbenzyl)-1-(2-((1-methyl-6-oxo-1,6-dihydro-3-pyridinyl)amino)-4-pyrimidinyl)-3-piperidinecarboxamide]
8 | 6.00 to 7.00 | CCOc1cccc(Nc2nccc(N3CCC[C@H](C(=O)NCc4ccc(C)cc4)C3)n2)c1 [Example 148, (3S)-1-(2-((3-ethoxyphenyl)amino)-4-pyrimidinyl)-N-(4-methylbenzyl)-3-piperidinecarboxamide]
9 | 6.00 to 7.00 | Cc1ccc(CNC(=O)[C@H]2CCCN(c3ccnc(Nc4cccc(S(N)(=O)=O)c4)n3)C2)cc1 [Example 151, (3S)-N-(4-methylbenzyl)-1-(2-((3-sulfamoylphenyl)amino)-4-pyrimidinyl)-3-piperidinecarboxamide]
10 | 5.30 to 6.00 | Cc1ccc(CNC(=O)[C@H]2CCCN(c3ccnc(Nc4ccc(C(=O)N(C)C)cc4)n3)C2)cc1 [Example 154, (3S)-1-(2-((4-(dimethylcarbamoyl)phenyl)amino)-4-pyrimidinyl)-N-(4-methylbenzyl)-3-piperidinecarboxamide]
11 | 5.30 to 6.00 | Cc1ccc(CNC(=O)[C@H]2CCCN(c3ccnc(Nc4cc(C)cc(C)c4)n3)C2)cc1 [Example 155, (3S)-1-(2-((3,5-dimethylphenyl)amino)-4-pyrimidinyl)-N-(4-methylbenzyl)-3-piperidinecarboxamide]
12 | 6.00 to 7.00 | CSc1cccc(Nc2nccc(N3CCC[C@H](C(=O)NCc4ccc(C)cc4)C3)n2)c1 [Example 157, (3S)-N-(4-methylbenzyl)-1-(2-((3-(methylsulfanyl)phenyl)amino)-4-pyrimidinyl)-3-piperidinecarboxamide]
13 | 6.00 to 7.00 | Cc1ccc(CNC(=O)[C@H]2CCCN(c3ccnc(Nc4cccc(C)c4)n3)C2)cc1 [Example 158, (3S)-N-(4-methylbenzyl)-1-(2-((3-methylphenyl)amino)-4-pyrimidinyl)-3-piperidinecarboxamide]
14 | 5.30 to 6.00 | Cc1ccc(CNC(=O)[C@H]2CCCN(c3ccnc(Nc4cc(F)cc(F)c4)n3)C2)cc1 [Example 159, (3S)-1-(2-((3,5-difluorophenyl)amino)-4-pyrimidinyl)-N-(4-methylbenzyl)-3-piperidinecarboxamide]
15 | 6.00 to 7.00 | Cc1ccc(CNC(=O)[C@H]2CCCN(c3ccnc(Nc4cccc(OC(C)C)c4)n3)C2)cc1 [Example 160, (3S)-N-(4-methylbenzyl)-1-(2-((3-(1-methylethoxy)phenyl)amino)-4-pyrimidinyl)-3-piperidinecarboxamide]
16 | 6.00 to 7.00 | Cc1ccc(CNC(=O)[C@H]2CCCN(c3ccnc(Nc4ccc(N5CCN(C)CC5)cc4)n3)C2)cc1 [Example 161, (3S)-N-(4-methylbenzyl)-1-(2-((4-(4-methyl-1-piperazinyl)phenyl)ami-no)-4-pyrimidinyl)-3-piperidinecarboxamide]
17 | 5.30 to 6.00 | Cc1ccc(CNC(=O)[C@H]2CCCN(c3ccnc(Nc4cccc(OC(F)(F)F)c4)n3)C2)cc1 [Example 164, (3S)-N-(4-methylbenzyl)-1-(2-((3-(trifluoromethoxy)phenyl)amino)-4-pyrimidinyl)-3-piperidinecarboxamide]
18 | 5.30 to 6.00 | CC(=O)Nc1ccc(Nc2nccc(N3CCC[C@H](C(=O)NCc4ccc(C)cc4)C3)n2)cc1 [Example 165, (3S)-1-(2-((4-(acetylamino)phenyl)amino)-4-pyrimidinyl)-N-(4-methylbenzyl)-3-piperidinecarboxamide]
19 | 5.30 to 6.00 | Cc1ccc(CNC(=O)[C@H]2CCCN(c3ccnc(Nc4ccc(C#N)cc4)n3)C2)cc1 [Example 166, (3S)-1-(2-((4-cyanophenyl)amino)-4-pyrimidinyl)-N-(4-methylbenzyl)-3-piperidinecarboxamide]
20 | 6.00 to 7.00 | Cc1ccc(CNC(=O)[C@H]2CCCN(c3ccnc(Nc4cccc(C(C)O)c4)n3)C2)cc1 (stereo partly drawn) [Example 167, (3S)-1-(2-((3-(1-hydroxyethyl)phenyl)amino)-4-pyrimidinyl)-N-(4-methylbenzyl)-3-piperidinecarboxamide]

The remaining lines, values behind:

Row | SMILES | pIC50
21 | COc1cc(Nc2nccc(N3CCC[C@H](C(=O)NC(C#N)c4ccc(OC(F)(F)F)cc4)C3)n2)cc(OC)c1OC (stereo partly drawn) [Example 127, (S)-N-(cyano(4-(trifluoromethoxy)phenyl)methyl)-1-(2-(3,4,5-trimethoxyphenylamino)pyrimidin-4-yl)piperidine-3-carboxamide] | > 7.30
22 | COc1ccc(NC(C)=O)cc1Nc1nccc(N2CCC[C@H](C(=O)NCc3ccc(C)cc3)C2)n1 [Example 138, (3S)-1-(2-((5-(acetylamino)-2-methoxyphenyl)amino)-4-pyrimidinyl)-N-(4-methylbenzyl)-3-piperidinecarboxamide] | 5.30 to 6.00
23 | Cc1ccc(CNC(=O)[C@H]2CCCN(c3ccnc(Nc4cccc5c4CNC5=O)n3)C2)cc1 [Example 141, (3S)-N-(4-methylbenzyl)-1-(2-((1-oxo-2,3-dihydro-1H-isoindol-4-yl)amino)-4-pyrimidinyl)-3-piperidinecarboxamide] | 6.00 to 7.00
24 | CC(=O)N1CC(C)(C)c2ccc(Nc3nccc(N4CCC[C@H](C(=O)NCc5ccc(C)cc5)C4)n3)cc21 [Example 142, (3S)-1-(2-((1-acetyl-3,3-dimethyl-2,3-dihydro-1H-indol-6-yl)amino)-4-pyrimidinyl)-N-(4-methylbenzyl)-3-piperidinecarboxamide] | 5.30 to 6.00
25 | Cc1ccc(CNC(=O)[C@H]2CCCN(c3ccnc(Nc4cccc(Cn5nccn5)c4)n3)C2)cc1 [Example 143, (3S)-N-(4-methylbenzyl)-1-(2-((3-(2H-1,2,3-triazol-2-ylmethyl)phenyl)amino)-4-pyrimidinyl)-3-piperidinecarboxamide] | 6.00 to 7.00
26 | Cc1ccc(CNC(=O)[C@H]2CCCN(c3ccnc(Nc4cc(C5CCN(C(=O)OC(C)(C)C)CC5)[nH]n4)n3)C2)cc1 [Example 144, tert-butyl 4-(3-((4-((3S)-3-((4-methylbenzyl)carbamoyl)-1-piperidinyl)-2-pyrimidinyl)amino)-1H-pyrazol-5-yl)-1-piperidinecarboxylate] | 5.30 to 6.00
27 | Cc1ccc(CNC(=O)[C@H]2CCCN(c3ccnc(Nc4cc(-c5ccc(C)cc5)[nH]n4)n3)C2)cc1 [Example 145, (3S)-N-(4-methylbenzyl)-1-(2-((5-(4-methylphenyl)-1H-pyrazol-3-yl)amino)-4-pyrimidinyl)-3-piperidinecarboxamide] | 5.00 to 5.30
28 | COc1cc(Nc2nccc(N3CCC[C@H](C(=O)NCc4ccc(C)cc4)C3)n2)cc2c1OCCO2 [Example 146, (3S)-1-(2-((8-methoxy-2,3-dihydro-1,4-benzodioxin-6-yl)amino)-4-pyrimidinyl)-N-(4-methylbenzyl)-3-piperidinecarboxamide] | 6.00 to 7.00
29 | Cc1ccc(CNC(=O)[C@H]2CCCN(c3ccnc(Nc4cccc(Oc5ccccc5)c4)n3)C2)cc1 [Example 149, (3S)-N-(4-methylbenzyl)-1-(2-((3-phenoxyphenyl)amino)-4-pyrimidinyl)-3-piperidinecarboxamide] | 6.00 to 7.00
30 | Cc1ccc(CNC(=O)[C@H]2CCCN(c3ccnc(Nc4cccc(C(=O)c5ccccc5)c4)n3)C2)cc1 [Example 150, (3S)-N-(4-methylbenzyl)-1-(2-((3-(phenylcarbonyl)phenyl)amino)-4-pyrimidinyl)-3-piperidinecarboxamide] | 6.00 to 7.00
31 | Cc1ccc(CNC(=O)[C@H]2CCCN(c3ccnc(Nc4cccc(Cc5ccccc5)c4)n3)C2)cc1 [Example 152, (3S)-1-(2-((3-benzylphenyl)amino)-4-pyrimidinyl)-N-(4-methylbenzyl)-3-piperidinecarboxamide] | 6.00 to 7.00
32 | Cc1ccc(CNC(=O)[C@H]2CCCN(c3ccnc(Nc4cc(C(C)(C)C)cc(C(C)(C)C)c4)n3)C2)cc1 [Example 153, (3S)-1-(2-((3,5-di-tert-butylphenyl)amino)-4-pyrimidinyl)-N-(4-methylbenzyl)-3-piperidinecarboxamide] | 5.30 to 6.00
33 | Cc1ccc(CNC(=O)[C@H]2CCCN(c3ccnc(Nc4cc(C(F)(F)F)cc(C(F)(F)F)c4)n3)C2)cc1 [Example 163, (3S)-1-(2-((3,5-bis(trifluoromethyl)phenyl)amino)-4-pyrimidinyl)-N-(4-methylbenzyl)-3-piperidinecarboxamide] | 6.00 to 7.00
